Assay results reported in ChEMBL document CHEMBL4396894, “The photodynamic activities of dimethyl 131-[2-(guanidinyl)ethylamino] chlorin e6 photosensitizers in A549 tumor” (Eur J Med Chem, 2019).
Calls of active or inactive are those of the source. The rule behind the calls is not given here.

How the values were obtained:
A549 [1] = assay: Dark toxicity in human A549 cells assessed as reduction in cell viability at 0.1 to 0.9 uM after 24 hrs by MTT assay; format: cell-based; settings: a549, 24 h
A549 [2] = assay: Dark toxicity in human A549 cells xenografted in BALB/c nude mouse assessed as reduction in tumor growth at 0.15 mg/kg, iv measured up to 14 days; format: organism-based; settings: in vivo, 336 h
[3] = Induction of singlet oxygen generation in DMF solution assessed as singlet oxygen quantum yield irradiated with 650 nanometer laser light for 5 to 30 secs measured immediately by DPBF-based assay; format: functional
A549 [4] = assay: Photodynamic cytotoxicity against human A549 cells assessed as reduction in cell viability preincubated for 24 hrs followed by compound washout and subsequent 650 nanometer laser light irradiation at 0.5 J/cm2 measured by MTT assay; format: functional, cell-based; settings: A549, light or radiation study
A549 [5] = assay: Photodynamic cytotoxicity against human A549 cells assessed as reduction in cell viability at 0.1 to 0.9 uM preincubated for 24 hrs followed by compound washout and subsequent 650 nanometer laser light irradiation at 0.5 to 2 J/cm2 measured by MTT assay; format: functional, cell-based
A549 [6] = assay: Photodynamic cytotoxicity against human A549 cells assessed as reduction in cell viability preincubated for 24 hrs followed by compound washout and subsequent 650 nanometer laser light irradiation at 1 J/cm2 measured by MTT assay; format: functional, cell-based; settings: A549, light or radiation study
A549 [7] = assay: Photodynamic cytotoxicity against human A549 cells assessed as reduction in cell viability preincubated for 24 hrs followed by compound washout and subsequent 650 nanometer laser light irradiation at 2 J/cm2 measured by MTT assay; format: functional, cell-based; settings: A549, light or radiation study
A549 [8] = assay: Photodynamic antitumor activity against human A549 cells xenografted in BALB/c nude mouse assessed as decrease in tumor growth at 0.15 mg/kg, iv irradiated with laser light at 120 J/cm2 measured up to 14 days; format: functional, organism-based
A549 [9] = assay: Photodynamic antitumor activity against human A549 cells xenografted in BALB/c nude mouse assessed as decrease in tumor weight at 0.15 mg/kg, iv irradiated with laser light at 120 J/cm2 measured 13 days post light irradiation; format: functional, organism-based
A549 [10] = assay: Photodynamic antitumor activity against human A549 cells xenografted in BALB/c nude mouse assessed as tumor growth inhibition at 0.4 mg/kg, iv irradiated with laser light at 120 J/cm2 measured up to 14 days; format: functional; settings: A549, light or radiation study, 336 h, read-out: TGI
[11] = Absorption property of the compound in DMSO assessed as maximum absorption wavelength at 1 to 20 uM by UV-Vis spectra analysis; format: physicochemical
[12] = Emission property of a compound in DMSO assessed as red shift at 5 uM by 3D fluorescence spectra analysis; format: physicochemical
[13] = Photobleaching property of the compound in DMSO at 10 uM irradiated with 650 nm laser light measured up to 90 mins by absorption spectra analysis
[14] = Drug uptake in human A549 cells measured after 1 to 24 hrs by fluorescence spectrophotometry; format: ADME, cell-based
A549 [15] = assay: Photodynamic cytotoxicity against human A549 cells assessed as reduction in cell viability preincubated for 24 hrs followed by compound washout and subsequent 650 nanometer laser light irradiation at 0.5 to 2 J/cm2 measured by MTT assay; format: functional, cell-based
A549 [16] = assay: Induction of intracellular ROS generation in human A549 cells at 1 uM preincubated for 4 hrs followed by compound washout measured under 650 nanometer laser light irradiation at 2 J/cm2 by DCFDA dye-based fluorescence microscopic analysis; format: functional, cell-based
[17] = Drug localization in mitochondria of human A549 cells at 1 uM after 4 hrs by mito-tracker green based laser confocal microscopic analysis; format: ADME; settings: a549, 4 h
[18] = Drug localization in lysosome of human A549 cells at 1 uM after 4 hrs by lyso-tracker blue based laser confocal microscopic analysis; format: ADME, subcellular; settings: a549, 4 h
[19] = Drug localization in endoplasmic reticulum of human A549 cells at 1 uM after 4 hrs by DiOC6(3) ER-tracker green based laser confocal microscopic analysis; format: ADME, subcellular; settings: a549, 4 h
A549 [20] = assay: Photodynamic antitumor activity against human A549 cells xenografted in BALB/c nude mouse assessed as increase in tumor tissue damage at 0.15 mg/kg, iv irradiated with laser light at 120 J/cm2 measured 24 hrs post light irradiation by H and E staining based histological analysis; format: functional, organism-based
A549 [21] = assay: Photodynamic antitumor activity against human A549 cells xenografted in BALB/c nude mouse assessed as increase in tumor tissue damage at 0.15 mg/kg, iv irradiated with laser light at 120 J/cm2 measured 24 hrs post light irradiation by TUNEL staining based histological analysis; format: functional, organism-based
A549 [22] = assay: Dark toxicity in human A549 cells xenografted in BALB/c nude mouse assessed as increase in limb tumor tissue damage at 0.15 mg/kg, iv measured 24 hrs post treatment by H and E staining based histological assay; format: organism-based; settings: in vivo
A549 [23] = assay: Dark toxicity in human A549 cells xenografted in BALB/c nude mouse assessed as increase in limb tumor tissue damage at 0.15 mg/kg, iv measured 24 hrs post treatment by TUNEL staining based histological assay; format: organism-based; settings: in vivo
A549 [24] = assay: Photodynamic antitumor activity against human A549 cells xenografted in BALB/c nude mouse assessed as increase in apoptosis at 0.15 mg/kg, iv irradiated with laser light at 120 J/cm2 measured 24 hrs post light irradiation by H and E staining based histological analysis; format: functional, organism-based
A549 [25] = assay: Photodynamic antitumor activity against human A549 cells xenografted in BALB/c nude mouse assessed as increase in necrosis at 0.15 mg/kg, iv irradiated with laser light at 120 J/cm2 measured 24 hrs post light irradiation by H and E staining based histological analysis; format: functional, organism-based
A549 [26] = assay: Photodynamic antitumor activity against human A549 cells xenografted in BALB/c nude mouse assessed as increase in apoptosis at 0.15 mg/kg, iv irradiated with laser light at 120 J/cm2 measured 24 hrs post light irradiation by TUNEL staining based histological analysis; format: functional, organism-based
A549 [27] = assay: Photodynamic antitumor activity against human A549 cells xenografted in BALB/c nude mouse assessed as increase in necrosis at 0.15 mg/kg, iv irradiated with laser light at 120 J/cm2 measured 24 hrs post light irradiation by TUNEL staining based histological analysis; format: functional, organism-based

SMILES: Oc1cccc(-c2c3nc(c(-c4cccc(O)c4)c4ccc([nH]4)c(-c4cccc(O)c4)c4nc(c(-c5cccc(O)c5)c5ccc2[nH]5)CC4)C=C3)c1 [TEMOPORFIN]
- Activity (A549 [1]): Non-Toxic
- Activity (A549 [2]): Non-Toxic
- Activity [3]: 0.47 to 0.48
- IC50 (A549 [4]): 1100 nM
- Activity (A549 [5]): Active
- IC50 (A549 [6]): 779 nM
- IC50 (A549 [7]): 702 nM
- Activity (A549 [8]): Active
- Activity (A549 [9]): Active

SMILES: C=Cc1c(C)c2cc3nc(c(CC(=O)OC)c4[nH]c(cc5nc(cc1[nH]2)C(C)=C5CC)c(C)c4C(=O)NCCNC(=N)N)[C@@H](CCC(=O)OC)[C@@H]3C
- Activity (A549 [1]): Non-Toxic
- Activity (A549 [2]): Non-Toxic
- inhibition in vivo at 0.4 mg/kg (A549 [10]): 100%
- Activity [11]: 403 to 664 nm
- Activity [12]: 4 nm
- Activity [13]: inactive
- Activity [3]: 2.03
- Drug uptake [14]: Active
- IC50 (A549 [4]): 1260 nM
- Activity (A549 [15]): Dose-dependent effect
- IC50 (A549 [6]): 886 nM
- IC50 (A549 [7]): 545 nM
- Activity (A549 [16]): Active
- Drug uptake [17]: Active
- Drug uptake [18]: Active
- Drug uptake [19]: Active
- Activity (A549 [8]): Active
- Activity (A549 [9]): Active
- Activity (A549 [20]): Active
- Activity (A549 [21]): Active
- Activity (A549 [22]): Non-Toxic
- Activity (A549 [23]): Non-Toxic
- Activity (A549 [24]): Active
- Activity (A549 [25]): Active
- Activity (A549 [26]): Active
- Activity (A549 [27]): Active

SMILES: C=Cc1c(C)c2cc3nc(c(CC(=O)OC)c4[nH]c(cc5nc(cc1[nH]2)C(C)=C5CC)c(C)c4C(=O)NCCN/C(=N\C(=O)OC(C)(C)C)NC(=O)OC(C)(C)C)[C@@H](CCC(=O)OC)[C@@H]3C
- Activity (A549 [1]): Non-Toxic
- Activity (A549 [2]): Non-Toxic
- inhibition in vivo at 0.4 mg/kg (A549 [10]): 100%
- Activity [11]: 403 to 664 nm
- Activity [12]: 4 nm
- Activity [13]: inactive
- Activity [3]: 1.98
- Drug uptake [14]: Active
- IC50 (A549 [4]): 542 nM
- Activity (A549 [15]): Dose-dependent effect
- IC50 (A549 [6]): 397 nM
- IC50 (A549 [7]): 197 nM
- Activity (A549 [16]): Active
- Drug uptake [17]: Active
- Drug uptake [18]: Active
- Drug uptake [19]: Active
- Activity (A549 [8]): Active
- Activity (A549 [9]): Active
- Activity (A549 [20]): Active
- Activity (A549 [21]): Active
- Activity (A549 [22]): Non-Toxic
- Activity (A549 [23]): Non-Toxic
- Activity (A549 [24]): Active
- Activity (A549 [25]): Active
- Activity (A549 [26]): Active
- Activity (A549 [27]): Active
